Read-outs that look alike come from different tables or passages of the source.
Key:
N-acetyl-felinine [1] = experiment: Determination of N-acetyl-felinine in rat urine by LC-MS; format: in vivo, Sprague Dawley rats; settings: for LC-MS signal for expected mass of N-acetyl felinine (m/z 248 in neg. mode): rat urine, 96 h after dosing
Method: (§1) Urine samples were collected in metabolism cages at 0 to 4° C. (automatically refrigerated by a Tecniplast sampling/cooling unit) at the intervals given in the sampling schedule below into sample tubes containing 1 ml of an aqueous Cs-azide (1%) solution. Before aliquoting, urine volumes were determined.
(§2) Immediately after reaching the end of the sampling period, the volume was determined and the samples were centrifuged at 3000 u/min [500 g] for 10 min.
LC-MS analysis of urine was performed using an Agilent 1100 HPLC system coupled to a Bruker Esquire 3000+ mass spectrometer equipped with an electrospray interface. Urine samples were diluted 4-fold with distilled water and 2 μl injections were made from a well plate maintained at 4° C. into a 150 mm×3.9 mm Waters Atlantis dC18 3 μm HPLC column maintained in an oven at 30° C. The column was eluted at a flow rate of 1 ml/min; mobile phase A consisted of 20 mM ammonium acetate, and mobile phase B of acetonitrile. […] The mass spectrometer was operated in negative mode with a dry gas flow of 81/min, nebulizer pressure of 27 psi and dry temperature of 330° C. The instrument was set to acquire over the mass range m/z 50-800. N-acetyl-felinine was found under this conditions at a retention time of 9.6 min with the expected m/z 248 (see FIG. 8) in samples of rats dosed with Zoledronate.

kidney and liver [2] = experiment: Histopathology of treated animals (kidney and liver toxicity)
N-acetyl-felinine [3] = experiment: Determination of N-acetyl-felinine in rat urine by NMR; format: in vivo, Sprague Dawley rats; settings: for N-acetyl-felinine levels in urine: in a given time interval after stimulation
Method: as §1, §2
N-acetyl-felinine was identified in urine samples on basis of 1D and 2D NMR spectra. Spectra were acquired at 600.13 MHz on a Bruker AV 600 spectrometer and at 500.13 MHz on Bruker DRX-500 spectrometer. Urine samples were prepared and measured and the data evaluated as described elsewhere (Keun, H. C.; Ebbels, T. M. D.; Antti, H.; Bollard, M. E.; Beckonert, O.; Schlotterbeck, G.; Senn, H,; Niederhauser, U.; Holmes, E.; Lindon, J. C.; Nicholson, J. K. Chem. Res. Toxicol. 2002, 15, 1380-1386).
Aliquots of 400 microliter urine are transferred into well plates. For adjustment of urinary pH 200 microliter of buffer [ca. 0.2M Na2HPO4/NaH2PO4, ca. 1 mM TSP (3-trimethylsilyl-D4-propionic acid), ca. 3 mM sodium azide] is added to each well. Prepared well plates are centrifuged at ca. 3,000 rpm at 4° C. for 5-10 min to remove insoluble material.
^1H NMR spectra for Metabonomic analysis (e.g. at 500 Mhz, 64 k data points, 12019.2 Hz spectral width) were measured at 300K. The water resonance were suppressed by use of standard pulse-sequences (e.g noesyprld, irradiation for 2 s relaxation delay and during 100 ms mixing time). For each sample as many transients were added as is needed to provide spectra high enough in signal to noise. Fourier transformation was done by use of a matched window function (e.g. lb=1) followed by (automatic or manual) phasing and base-line correction. Referencing was done with respect to TSP added (defined as 0.0 ppm). Acquisition and processing of spectra was performed with Bruker XWinNMR 3.5 software.
Each spectrum recorded was reduced in size for simplified statistical analysis (e.g. For NMR spectra recorded according to the standard protocol 245 variables will be calculated by equidistant integration between 0.2-10.0 ppm). Regions containing misleading information (e.g. solvents, urea cover a region for 4.5 up to 6.0 ppm) were excluded or merged (e.g. the region from 2.66 to 2.74 ppm serves as a value indicative for citrate) prior to analysis. To take account variations in urine concentration, all data-reduced spectra were normalised to a constant integrated intensity of 100 units.
Thereby widespread PCA (principal component analysis) is used for identifying significant patterns of signals and assigning these patterns to samples and groups of samples. PLS (projection to latent structures, partial least squares) is also used for finding significant patterns of signals, whereby in contrast to PCA the information of dose-groups is used for boosting the identification of significant changes. The assignment is performed with the help of an internal data base of metabolites, with the help of pathway mapping procedures (KEGG database) and with the help of a spectroscopic structure elucidation for unknown metabolites when feasible.

kidney and liver [4] = settings: rat, in vivo

Row | SMILES | N-acetyl-felinine in urine by LC-MS (N-acetyl-felinine [1]; negative mode, urine samples of dosed rats) | LC-MS signal for expected mass of N-acetyl felinine (m/z 248 in neg. mode) (N-acetyl-felinine [1]; 6 mg/kg, FIG. 8) | kidney and liver toxicity in histopathology (kidney and liver [2]) | N-acetyl-felinine in urine NMR spectra (N-acetyl-felinine [3]; 1D NMR, signal at 1.32 ppm, FIG. 5) | NMR signal at 1.32 ppm in urine (N-acetyl-felinine [3]; 96 h after dosing, FIG. 5) | N-acetyl-felinine levels in urine (N-acetyl-felinine [3]) | kidney and liver toxicity in histopathology (kidney and liver [4]) | LC-MS signal for expected mass of N-acetyl felinine (m/z 248 in neg. mode) (N-acetyl-felinine [1]; 3 mg/kg, FIG. 9) | Time course of bin 1.32 ppm (Methyl signals of N-Acetyl felinine) relative to creatinine (N-acetyl-felinine [3]; rat urine NMR, FIG. 3)
1 | O=P(O)(O)C(O)(Cn1ccnc1)P(=O)(O)O [Zoledronate] | found | Strong signal found | kidney and liver toxicity was observed | found | New signal at 1.32 ppm visible | high levels |  |  | 
2 | CCCCCN(C)CCC(O)(P(=O)(O)O)P(=O)(O)O [Ibandronate] |  |  |  |  |  | undetectable | not so | No signal found | no increase

Reference: patent US8084262B2, “Biomarker for farnesyl pathway” (Hoffmann-La Roche Inc., priority 2006, dated 2011)
